Patent publication US20110091540A1, “POLYMERIC COMPOSITIONS AND THEIR METHOD OF USE IN COMBINATION WITH ACTIVE AGENTS” (priority 2007, published 2011)

Experiment: Clinical trial of Example 11: fecal metal excretion and stool weight
Assay type: in vivo, human
Details: groups receiving mannitol with CLP; passage through the entire gastrointestinal tract
Experimental: For this clinical trial, an open-label, non-randomized, multiple-dose study in eighteen healthy subjects divided into six groups of three subjects in each group was conducted. Subjects were placed into one of six groups on day six, based upon the previous five days of stool weights, so that the average daily stool weight is approximately equal across groups.
CLP (milled) with and without mannitol (Groups 1, 2, 5 and 6) was in size 00 HPMC capsules that are uncoated. CLP (beads) and mannitol alone were supplied in bottles so that they may put into size 00 HPMC capsules (Groups 3 and 4).
CLP was administered according to treatment assignment (Groups 1, 2, 3, and 4) in a fasted state, at least one hour prior to each of four meals/snack and administered with water. Subjects were restricted from additional fluids for one hour pre and post dose. For Groups 5 and 6, CLP is administered in a fed state, thirty minutes following the end of a meal and evening snack, administered with water and without any fluid restriction.
Each sample was individually weighed and the color and consistency of the stool noted. The weights were added together to determine the total fecal weight resulting from each day's intake. The entire weight of stool between the color markers was also totaled separately for both the baseline period and the experimental period. […]

OC[C@@H](O)[C@@H](O)[C@H](O)[C@H](O)CO [mannitol]
Effect of mannitol on fluid removal (stool weight): does not increase fluid removal and may decrease fluid removal
